According to US4857516A, “Coumaran derivatives and their pharmaceutical use” (Takeda Chemical Industries, Ltd., priority 1986, dated 1989):

Legend:
[1] = system: excitatory behavior induced by FeCl2 in mice; assay: Excitatory behavior induced by spinal intrathecal injection of FeCl2 in mice; format: in vivo, mouse; details: 100 mg/kg p.o.; for Score (mean behavioral score): 30 min. prior to FeCl2, 0 normal to 5 death; for Percent inhibition (of mean score): vs vehicle p.o.
Protocol: Male Slc:ICP mice (5 weeks) were used. Each group consisted of 10 mice. 5 μl of 50 mM FeCl2 in saline was injected into spinal subarchnoid space betwen the 1st sacral and the 6th lumbar segment, the behavioral responses were observed from 15 min. to 1 hr. after the intrathecal injection of FeCl2 and scored as follows.
Score Behavioral responses
0: normal (no abnormal behavior)
1: vigorously biting lower abdomen or lower extremities
(a) extremely biting lower body with rolling
(b) hyperreactivity and agressive to external stmuli
at least one of above three behavioral changes were observed
4: tonic convulsion or paralysis of lower extremities.
The test compounds (100 mg/kg) were orally administered 30 min. prior to FeCl2 injection.

5-lipoxygenase = target: T1, 5-lipoxygenase (Rattus norvegicus, UniProt P12527); assay: Inhibition of 5-lipoxygenase (5-HETE production in RBL-1 cells); format: cell-based
T1 construct: endogenous in cells; host or cells: RBL-1 (rat basophilic leukemia cells)
T1 sequence (P12527 1-673): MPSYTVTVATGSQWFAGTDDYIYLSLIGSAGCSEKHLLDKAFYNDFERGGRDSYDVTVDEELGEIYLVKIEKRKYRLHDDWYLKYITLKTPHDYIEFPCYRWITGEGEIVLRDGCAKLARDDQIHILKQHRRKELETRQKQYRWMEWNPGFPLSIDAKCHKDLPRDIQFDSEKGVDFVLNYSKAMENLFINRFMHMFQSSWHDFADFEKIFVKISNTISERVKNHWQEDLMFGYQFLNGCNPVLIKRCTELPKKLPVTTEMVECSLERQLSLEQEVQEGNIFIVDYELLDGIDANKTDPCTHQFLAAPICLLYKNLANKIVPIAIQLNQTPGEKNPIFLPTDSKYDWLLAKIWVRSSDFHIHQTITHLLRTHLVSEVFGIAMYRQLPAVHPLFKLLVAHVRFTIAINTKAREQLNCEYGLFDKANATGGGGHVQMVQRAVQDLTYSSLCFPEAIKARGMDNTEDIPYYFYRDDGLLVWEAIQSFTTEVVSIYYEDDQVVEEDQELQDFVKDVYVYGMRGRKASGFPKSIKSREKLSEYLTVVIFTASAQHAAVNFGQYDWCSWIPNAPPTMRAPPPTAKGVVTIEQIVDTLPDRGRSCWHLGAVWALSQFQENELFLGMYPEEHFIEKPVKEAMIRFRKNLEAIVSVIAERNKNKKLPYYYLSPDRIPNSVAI
Protocol: 10^7 RBL-1 cells (rat basophilic leukemia cells) were suspended in 0.5 ml of MCM (mast cell medium). […] Then 4 ml of ethanol was added, and the mixture was well shaken and kept at room temperature for 10 min.
The mixture was centrifuged for 10 min. (2000 rpm), and the supernatant was separated. The supernatant obtained was concentrated to dryness under reduced pressure. To the residue 0.5 ml of 60 v/v % aqueous methanol was added. One hundred μl of this solution was subjected to high performance liquid chromatography for quantitative analysis of 5-HETE (5-hydroxyeicosatetraenoic acid). The amount of 5-HETE was determined by measurement of the absorbance at 237 nm with a UV absorption monitor.
The inhibitory effect (IE) of production of 5-HETE is expressed by (1-b/a)×100, wherein a is the peak height or the area corrected with the peak due to the internal standard in the absence of the compound (I) or a pharmaceutically acceptable salt thereof, and b is the peak height or peak area corrected with the peak due to the internal standard in the presence of the compound (I) or a pharmaceutically acceptable salt thereof.

[2] = system: lipid peroxide production in rat brain homogenates; assay: Inhibitory action on lipid peroxide production in rat brain homogenates; format: biochemical; details: 5 v/v % rat brain homogenate, pH 7.4, 1 hour at 37° C.; read-out: Inhibition (IC50) of lipid peroxide production
Protocol: The male SD rat (12 weeks) brain tissue was extracted under anesthesia after depletion. The extracted brain tissue was used as 5 v/v % homogenate in phosphate buffer (pH 7.4). After incubation of the homogenate for 1 hour at 37° C., the peroxide produced was determined by the thiobarbituric acid method according to the method described in Analytical Biochemistry, 95, 551 (1979).
Before incubation, test compounds were added in 5 v/v % homogenate so that their final concentration becomes 10^-5 M. […]

[3] = system: urinary incontinence in rats with spinal cord compression; assay: Incidence of rats showing urinary incontinence (spinal cord compression); format: in vivo, rat; design: Incidence of rats showing urinary incontinence: unit not given here; details: 40 mg/kg, p.o.
Text: (§1) Male Jcl:Wistar rats, weighing about 350 g at the time of spinal cord compression were used. A spinal cord injury was produced in rats by compressing the spinal cord with a stainless screw of 2.8 mm length and 2 mm diameter at thoracic 11 (T11) level under pentobarbital anesthesia. On the day of the operation, the screw was placed so that the end was just above the subarachnoid membrane of the spinal cord.
(§2) On the following day, the screw was completely tightened to compress the spinal cord without penetrating the subarachnoid membrane. After compression of the spinal cord for 60 min., the screw was removed. Test compounds were given orally 5 min. after the removal of screw.
(§3) The median neurological score of the drug-treated groups were compared with that saline-teated control group. Statistical analysis was done using the Mann-Whitney U-test. The incidence of rats showing urinary incontinence was also compared by the .chi.^2 -test.

[4] = system: neurological deficits caused by spinal cord compression in rats; assay: Functional neurologic impairment induced by spinal cord compression in rats; format: in vivo, rat; details: 40 mg/kg, p.o.
Text: as §1, §2
0; flaccid paralysis, no movement of hind limbs, no response to pinching of tail with foreceps (i.e. movement of fore limbs, biting foreceps, vocalization)
1; no movement of hind limbs, but responds to pinching of tail with foreceps
2; uncoordinated movement (loss of coordination between limbs), but can not support own weight
3; movement with an impairment (general coordination between limbs), but can not support own weight
4; walking with a slight ataxia of the hind limbs, but can support own weight
as §3

[5] = system: neurological deficits in rats with cerebral ischemia; assay: Neurological deficits in rats with experimental cerebral ischemia; format: in vivo, rat; details: p.o.
Protocol: Male Crj:Wistar rats, that were 7 weeks old at the time of electocauterization of the bilateral vertebral arteries, were used. Electrocauterization of the bilateral vertebral arteries was performed under pentobarbital Na (40 mg/kg, i.p.) anesthesia. Global cerebral ischemia was produced by 20 min. occlusion of both common carotid arteries 24 hr after the permanent electrocauterization of the bilateral vertebral arteries (Pulsinelli W. A. and Brierly J. B., Stroke 10, 267-272 (1979).
The compound of Example 20 was given orally as a single dose immediately after the reperfusion of both carotid arteries.
1; decrease in spontaneous motor activity, piloerection, ptosis, miosis, hyperirritability, slight ataxia
2; moderate to servere ataxia
3; loss of righting reflex, slight convulsions
4; severe convulsions, coma
The median neurological deficit scores of the drug-treated groups were compared with that of saline-treated control. Statistical analysis was done using the Mann-Whitney U-test.

[6] = day 3, Ex. 7 *p < 0.05, Ex. 20 **p < 0.01

Cc1c(C)c2c(c(C)c1O)C(c1ccc(Br)cc1)C(C)(C)O2 (centres unmarked) [Example 11]
Score (mean behavioral score) [1]: 0.7 | Percent inhibition (of mean score) [1]: 84%

Cc1c(C)c2c(c(C)c1O)C(c1ccc(C(C)C)cc1)C(C)(C)O2 (centres unmarked) [Example 20, 5-hydroxy-2,2,4,6,7-pentamethyl-3-(4-isopropylphenyl)-2,3-dihydrobenzofuran]
inhibition at 1 µM (5-lipoxygenase; 10^-6 M): 100% | inhibition at 0.1 µM (5-lipoxygenase; 10^-7 M): 42% | inhibition at 0.01 µM (5-lipoxygenase; 10^-8 M): 36% | IC50 [2]: 25 nM | Incidence of rats showing urinary incontinence ([3]; day 1, Ex. 20 **p < 0.01): 0 | Incidence of rats showing urinary incontinence ([3]; day 2, Ex. 20 **p < 0.01): 0 | Incidence of rats showing urinary incontinence [3, 6]: 0 | Incidence of rats showing urinary incontinence ([3]; day 5, Ex. 20 **p < 0.01): 0 | Incidence of rats showing urinary incontinence ([3]; day 7, Ex. 7 *p < 0.05): 7.1 | Incidence of rats showing urinary incontinence ([3]; day 10): 7.1 | Incidence of rats showing urinary incontinence ([3]; day 14): 7.1 | incidence of urinary incontinence (in words) ([3]; Table 4(IV)): reduced the incidence of urinary incontinence | neurological score (median value) ([4]; day 1, 0 flaccid paralysis to 5 normal gait, Ex. 20 **p < 0.01): 2 | neurological score (median value) [4, 6]: 3 | neurological score (median value) ([4]; day 7, Ex. 20 **p < 0.01): 4 | neurological score (median value) ([4]; day 14, Ex. 20 *p < 0.05): 4 | neurological impairment caused by spinal cord compression (in words) ([4]; Table 4(III)): ameliorated the neurological impairment | neurological deficit score (median value) ([5]; 10 mg/kg, day 1, 0 normal to 5 death): 2 | neurological deficit score (median value) ([5]; 10 mg/kg, day 2): 2 | neurological deficit score (median value) ([5]; 10 mg/kg, day 3, *p < 0.05): 1.5 | neurological deficit score (median value) ([5]; 10 mg/kg, day 5, **p < 0.01): 1 | neurological deficit score (median value) ([5]; 10 mg/kg, day 7, *p < 0.05): 1 | neurological deficit score (median value) ([5]; 10 mg/kg, day 10, **p < 0.01): 0 | neurological deficit score (median value) ([5]; 10 mg/kg, day 14): 0 | neurological deficit score (median value) ([5]; 40 mg/kg, day 1, 0 normal to 5 death): 2 | neurological deficit score (median value) ([5]; 40 mg/kg, day 2): 2 | neurological deficit score (median value) ([5]; 40 mg/kg, day 3, **p < 0.01): 1 | neurological deficit score (median value) ([5]; 40 mg/kg, day 5, **p < 0.01): 1 | neurological deficit score (median value) ([5]; 40 mg/kg, day 7, *p < 0.05): 1 | neurological deficit score (median value) ([5]; 40 mg/kg, day 10, *p < 0.05): 0 | neurological deficits caused by transient cerebral ischemia (in words) ([5]; 10 and 40 mg/kg): significantly ameliorated the neurological deficits

Cc1c(C)c2c(c(C)c1O)C(c1ccc(Cl)cc1)C(C)(C)O2 (centres unmarked) [Example 13]
Score (mean behavioral score) [1]: 0.7 | Percent inhibition (of mean score) [1]: 83%
